Source: ChEMBL document CHEMBL1134155, “Synthesis and HIV-1 integrase inhibitory activities of catechol and bis-catechol derivatives” (Bioorg Med Chem Lett, 2001)

Experiments:
[1] = molecular target: Human immunodeficiency virus type 1 integrase (Human immunodeficiency virus 1, UniProt Q7ZJM1); assay: Inhibition of human immunodeficiency virus - 1 (HIV-1) integrase
[2] = Cytotoxicity in a cell viability MTT assay; type: functional; conditions: read-out: TC50 (the source's name)
CCRF-CEM = assay: Tested for antiviral activity against Human Immunodeficiency virus (HIV-1) replication in CEM cells.; type: functional, cell-based

Chain of Human immunodeficiency virus type 1 integrase (Q7ZJM1 whole entry): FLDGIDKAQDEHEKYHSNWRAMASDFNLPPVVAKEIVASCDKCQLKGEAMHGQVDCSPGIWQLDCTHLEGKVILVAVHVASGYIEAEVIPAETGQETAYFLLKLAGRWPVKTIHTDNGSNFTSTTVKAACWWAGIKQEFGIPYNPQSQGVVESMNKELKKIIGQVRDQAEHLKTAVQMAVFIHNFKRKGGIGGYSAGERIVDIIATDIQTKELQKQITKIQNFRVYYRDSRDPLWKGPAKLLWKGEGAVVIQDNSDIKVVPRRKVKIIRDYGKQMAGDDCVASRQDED

| IC50 [1] [µM] | IC50 (CCRF-CEM) [µM] | SMILES | CC50 [2] [µM] |
| --- | --- | --- | --- |
| 500 |  | Cc1cc2ccccc2c(C)c1-c1ccc(O)c(O)c1 |  |
| 500 |  | Cc1cc2c(F)cccc2c(C)c1-c1ccc(O)c(O)c1 |  |
| 2.1 | 9.9 | Oc1ccc(-c2ccc3cc(O)c(O)cc3c2)cc1O | 51 |
| 500 |  | Cc1cc2cc(O)c(O)cc2c(C)c1-c1ccccc1F |  |
| 157 |  | Cc1ccc2cc(C)c(-c3ccc(O)c(O)c3)c(C)c2c1 |  |

Continued, compound first:

| SMILES | IC50 [1] [µM] | IC50 (CCRF-CEM) [µM] | CC50 [2] [µM] |
| --- | --- | --- | --- |
| Cc1cc2cc(O)c(O)cc2c(C)c1-c1ccccc1C(F)(F)F | 22 | 10.3 | 13.6 |
| Cc1ccc(-c2c(C)cc3cc(O)c(O)cc3c2C)cc1 | 84 |  |  |
| Oc1cc2c(cc1O)C1Cc3cc(O)c(O)cc3C(C2)O1 | 1.3 | 98 | > 100 |
| Cc1cc2cc(O)c(O)cc2c(C)c1-c1cccc(C(F)(F)F)c1 | 13 | 5.7 | 72.6 |
| Cc1cc2ccc(F)cc2c(C)c1-c1ccc(O)c(O)c1 | 500 |  |  |
| Cc1cc2cc(O)c(O)cc2c(C)c1-c1ccc(F)cc1 | 138 |  |  |
| Cc1cc2cc(O)c(O)cc2c(C)c1-c1ccc(C(F)(F)F)cc1 | 21 | 10.5 | 19 |
| Cc1cc2cc(O)c(O)cc2c(C)c1-c1ccccc1 | 76 |  |  |
| Cc1cc2cc(O)c(O)cc2c(C)c1-c1ccc(O)c(O)c1 | 23 | 8.7 | 33 |
